Measurements: publication PMC10999543, “Identification of kinase modulators as host-directed therapeutics against intracellular methicillin-resistant Staphylococcus aureus” (Frontiers in Cellular and Infection Microbiology, 2024)
Read-outs that look alike come from different tables or passages of the source.

Legend:
[1] = tested on: HeLa cells; assay: Compound screen by flow cytometry: HeLa cell count as surrogate readout of cell viability (z-scoreHeLa); format: cell-based, human; conditions: for cell count rep 1 / z-scoreHeLa rep 1: replicate 1; for cell count rep 2 / z-scoreHeLa rep 2: replicate 2; for cell count rep 3 / z-scoreHeLa rep 3: replicate 3; for z-scoreHeLa mean: mean of 3 replicates; as to all read-outs here: test concentration or dose not given here
Method in brief: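 The viability surrogate was the count of fixed HeLa cells by flow cytometry, converted to z-scores against DMSO controls with values deviating two-fold excluded. Before counting, cells had been infected with MRSA for 1 h and cleared of extracellular bacteria with gentamicin. They were then exposed overnight to kinase inhibitors in triplicate.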

[2] = tested on: intracellular MRSA; format: cell-based, Staphylococcus aureus; conditions: for %GFP+ rep 1 / z-scoreMRSA+ rep 1: replicate 1; for %GFP+ rep 2 / z-scoreMRSA+ rep 2: replicate 2; for %GFP+ rep 3 / z-scoreMRSA+ rep 3: replicate 3; for z-scoreMRSA+ mean: mean of 3 replicates; as to %GFP+ rep 1: test concentration or dose not given here; as to %GFP+ rep 2: test concentration or dose not given here; as to %GFP+ rep 3: test concentration or dose not given here; as to effect: test concentration or dose not given here; as to z-scoreMRSA+ mean: test concentration or dose not given here; as to z-scoreMRSA+ rep 1: test concentration or dose not given here; as to z-scoreMRSA+ rep 2: test concentration or dose not given here; as to z-scoreMRSA+ rep 3: test concentration or dose not given here
Method in brief: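 Values are z-scores: GFP-positive HeLa percentage and event count per well against plate statistics, minus the mean DMSO z-score. Wells deviating two-fold from controls were left out of plate means. Infection was at a mean MOI of 6.8, with an overnight compound exposure.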

[3] = PKIS compound screen raw data, HeLa cell count
[4] = PKIS compound screen, HeLa cell count
[5] = PKIS compound screen, Yes/No call on z-scoreHeLa
[6] = PKIS compound screen raw data, MRSA-infected HeLa cells
[7] = PKIS compound screen, MRSA-infected HeLa cells
[8] = PKIS compound screen, Yes/No call (effect without cell death)
[9] = PKIS compound screen, Yes/No call on z-scoreMRSA+
[10] = PKIS compound screen, Yes/No call
[11] = PKIS compounds raw data, HeLa cell count
[12] = PKIS compounds raw data, MRSA-infected HeLa cells
[13] = compound screen, HeLa cell count
[14] = Yes/No: effect without cell death
[15] = compound screen, MRSA-infected HeLa cells

| SMILES | cell count rep 1 [1, 3] | cell count rep 2 [1, 3] | cell count rep 3 [1, 3] | z-scoreHeLa mean [1, 4] | z-scoreHeLa rep 1 [1, 4] | z-scoreHeLa rep 2 [1, 4] | z-scoreHeLa rep 3 [1, 4] | cell death [1, 5] | %GFP+ rep 1 [2, 6] | %GFP+ rep 2 [2, 6] | %GFP+ rep 3 [2, 6] | z-scoreMRSA+ mean [2, 7] | z-scoreMRSA+ rep 1 [2, 7] | z-scoreMRSA+ rep 2 [2, 7] | z-scoreMRSA+ rep 3 [2, 7] | hit [2, 8] | effect [2, 9] | cell count rep 1 [1, 11] | cell count rep 2 [1, 11] | cell count rep 3 [1, 11] | other results |
| --- | --- | --- | --- | --- | --- | --- | --- | --- | --- | --- | --- | --- | --- | --- | --- | --- | --- | --- | --- | --- | --- |
| COc1cc2c(Nc3cccc(NC(=O)c4ccccc4)c3)ncnc2cc1OCCCN1CCOCC1 [GSK223810A] | 28720 | 24881 | 20680 | 0.00813 | -0.25 | -0.07 | 0.34 | No | 19.8% | 21.2% | 22.6% | 0.38 | 0.27 | 0.49 | 0.37 | No | No | – | – | – | – |
| CCn1c(-c2nonc2N)nc2c(C#CC(C)(C)O)nc(OCCNC)cc21 [GSK949675A] | – | – | – | – | – | – | – | – | – | – | – | – | – | – | – | No | – | 4918 | 5879 | 10520 | cell death [1, 10]: No; z-scoreHeLa mean ([1]; PKIS compound screen): 1.02; z-scoreHeLa rep 1 ([1]; PKIS compound screen): 0.13; z-scoreHeLa rep 2 ([1]; PKIS compound screen): 1.22; z-scoreHeLa rep 3 ([1]; PKIS compound screen): 1.70; effect [2, 10]: No; z-scoreMRSA+ mean ([2]; PKIS compound screen): 0.28; z-scoreMRSA+ rep 1 ([2]; PKIS compound screen): 0.59; z-scoreMRSA+ rep 2 ([2]; PKIS compound screen): 0.84; z-scoreMRSA+ rep 3 ([2]; PKIS compound screen): -0.59; %GFP+ rep 1 [2, 12]: 15.0%; %GFP+ rep 2 [2, 12]: 16.0%; %GFP+ rep 3 [2, 12]: 13.9% |
| CS(=O)(=O)Nc1ccc(-c2cc(-c3ccccc3)cc(C(N)=O)c2N)cc1 [GSK586581A] | 20516 | 41456 | 41123 | 0.47 | 0.06 | 1.24 | 0.09 | No | 17.7% | 16.5% | 20.3% | -0.17 | -0.05 | -0.61 | 0.16 | No | No | – | – | – | – |
| Cc1ccnc2ccc(-c3sc(N)nc3-c3ccccn3)nc12 [GW777257X] | 3590 | 3185 | 3623 | – | – | – | – | – | 20.9% | 19.0% | 19.9% | – | – | – | – | – | – | – | – | – | cell death ([1]; Yes/No call from z-scoreHeLa): No; z-scoreHeLa mean [1, 13]: -0.81; z-scoreHeLa rep 1 [1, 13]: -0.55; z-scoreHeLa rep 2 [1, 13]: -0.86; z-scoreHeLa rep 3 [1, 13]: -1.02; effect ([2]; Yes/No call from z-scoreMRSA+): No; hit [2, 14]: No; z-scoreMRSA+ mean [2, 15]: -0.86; z-scoreMRSA+ rep 1 [2, 15]: -1.02; z-scoreMRSA+ rep 2 [2, 15]: -0.88; z-scoreMRSA+ rep 3 [2, 15]: -0.69 |
| O=C(NC1CCN(c2ccnc(Nc3ccc(F)cc3)n2)C1)c1cc2ccccc2s1 (stereo not drawn) [GSK1379716A] | 35239 | 17173 | 16326 | -0.35 | 0.85 | -1.39 | -0.51 | No | 18.9% | 18.2% | 21.3% | -0.09 | 0.0322 | -0.33 | 0.0175 | No | No | 5074 | 4507 | 6035 | cell death [1, 10]: No; z-scoreHeLa mean ([1]; PKIS compound screen): -0.43; z-scoreHeLa rep 1 ([1]; PKIS compound screen): -0.58; z-scoreHeLa rep 2 ([1]; PKIS compound screen): -1.00; z-scoreHeLa rep 3 ([1]; PKIS compound screen): 0.28; effect [2, 10]: No; z-scoreMRSA+ mean ([2]; PKIS compound screen): 0.16; z-scoreMRSA+ rep 1 ([2]; PKIS compound screen): 0.26; z-scoreMRSA+ rep 2 ([2]; PKIS compound screen): 0.28; z-scoreMRSA+ rep 3 ([2]; PKIS compound screen): -0.07; %GFP+ rep 1 [2, 12]: 28.4%; %GFP+ rep 2 [2, 12]: 27.5%; %GFP+ rep 3 [2, 12]: 26.9% |
| COc1cc(Nc2nccc(N3CCC(NC(=O)C(C)c4ccc(Cl)cc4)C3)n2)cc(OC)c1OC (stereo not drawn) [GSK1379757A] | 34106 | 27085 | 22729 | 0.57 | 0.66 | 0.31 | 0.74 | No | 24.2% | 23.0% | 24.9% | 1.14 | 1.45 | 0.98 | 1.00 | No | No | 6143 | 6440 | 6051 | cell death [1, 10]: No; z-scoreHeLa mean ([1]; PKIS compound screen): 0.21; z-scoreHeLa rep 1 ([1]; PKIS compound screen): 0.06; z-scoreHeLa rep 2 ([1]; PKIS compound screen): 0.29; z-scoreHeLa rep 3 ([1]; PKIS compound screen): 0.29; effect [2, 10]: No; z-scoreMRSA+ mean ([2]; PKIS compound screen): 0.73; z-scoreMRSA+ rep 1 ([2]; PKIS compound screen): 0.77; z-scoreMRSA+ rep 2 ([2]; PKIS compound screen): 0.76; z-scoreMRSA+ rep 3 ([2]; PKIS compound screen): 0.65; %GFP+ rep 1 [2, 12]: 31.0%; %GFP+ rep 2 [2, 12]: 30.0%; %GFP+ rep 3 [2, 12]: 30.8% |
| CN(c1ccc2c(c1)nc(NCc1ccccc1)n2C)c1ccnc(Nc2ccc(CS(C)(=O)=O)cc2)n1 [GW811603A] | – | – | – | – | – | – | – | – | – | – | – | – | – | – | – | – | – | 3958 | 3626 | 4329 | cell death ([1]; Yes/No call from z-scoreHeLa): No; z-scoreHeLa mean [1, 13]: -0.46; z-scoreHeLa rep 1 [1, 13]: -0.28; z-scoreHeLa rep 2 [1, 13]: -0.52; z-scoreHeLa rep 3 [1, 13]: -0.57; %GFP+ rep 1 [2, 12]: 29.9%; %GFP+ rep 2 [2, 12]: 27.8%; %GFP+ rep 3 [2, 12]: 24.6%; effect ([2]; Yes/No call from z-scoreMRSA+): No; hit [2, 14]: No; z-scoreMRSA+ mean [2, 15]: 1.02; z-scoreMRSA+ rep 1 [2, 15]: 1.08; z-scoreMRSA+ rep 2 [2, 15]: 1.26; z-scoreMRSA+ rep 3 [2, 15]: 0.72 |
| COc1ccc(Nc2nccc(N3CCC(NC(=O)C(C)c4ccc(Cl)cc4)CC3)n2)cc1 (stereo not drawn) [GSK1379812A] | 31442 | 27526 | 20779 | 0.32 | 0.21 | 0.39 | 0.36 | No | 20.9% | 22.5% | 23.9% | 0.71 | 0.57 | 0.84 | 0.73 | No | No | 6940 | 7004 | 5839 | cell death [1, 10]: No; z-scoreHeLa mean ([1]; PKIS compound screen): 0.45; z-scoreHeLa rep 1 ([1]; PKIS compound screen): 0.54; z-scoreHeLa rep 2 ([1]; PKIS compound screen): 0.66; z-scoreHeLa rep 3 ([1]; PKIS compound screen): 0.15; effect [2, 10]: No; z-scoreMRSA+ mean ([2]; PKIS compound screen): 0.50; z-scoreMRSA+ rep 1 ([2]; PKIS compound screen): 0.81; z-scoreMRSA+ rep 2 ([2]; PKIS compound screen): 0.11; z-scoreMRSA+ rep 3 ([2]; PKIS compound screen): 0.60; %GFP+ rep 1 [2, 12]: 31.2%; %GFP+ rep 2 [2, 12]: 26.6%; %GFP+ rep 3 [2, 12]: 30.5% |
| CCS(=O)(=O)c1ccc(OC)c(Nc2nccc(N(C)c3ccc4c(C)n[nH]c4c3)n2)c1 [GW654652C] | 21654 | 25320 | 35112 | -0.80 | 0.23 | -1.77 | -0.86 | No | 13.7% | 14.6% | 13.9% | -1.43 | -1.32 | -1.18 | -1.79 | No | No | – | – | – | – |
